Data taken from PubChem BioAssay (NCI).
Values joined by “and” are separate entries in the source; they are usually repeats but may differ in a detail not shown here. Equal entries are not always repeated.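 Tested at 5 concentrations; 48 h exposure; 96-well plates; endpoints linearly interpolated, else capped at highest concentration. GI50 = concentration required for 50% inhibition of growth. TGI is the concentration that stops growth completely.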

Legend:
Test in all cases: growth of human tumour cells (NCI), 48 h
M19-MEL melanoma = system: M19-MEL melanoma
T-47D breast = system: T-47D breast
EKVX NSCLC = system: EKVX NSCLC
SF-539 CNS = system: SF-539 CNS
A498 renal = system: A498 renal
DMS 114 small cell lung = system: DMS 114 small cell lung
MDA-MB-231 breast = system: MDA-MB-231 breast
OVCAR-8 ovarian = system: OVCAR-8 ovarian
K-562 leukemia = system: K-562 leukemia
HCT-116 colon = system: HCT-116 colon
UACC-62 melanoma = system: UACC-62 melanoma
HCT-15 colon = system: HCT-15 colon
TK-10 renal = system: TK-10 renal
NCI-H23 lung = system: NCI-H23 lung
SK-MEL-28 melanoma = system: SK-MEL-28 melanoma
SF-268 CNS = system: SF-268 CNS
A549 NSCLC = system: A549 NSCLC
SK-MEL-5 melanoma = system: SK-MEL-5 melanoma
LXFL 529 NSCLC = system: LXFL 529 NSCLC
SNB-78 CNS = system: SNB-78 CNS
NCI-H226 lung = system: NCI-H226 lung
SNB-19 CNS = system: SNB-19 CNS
RPMI-8226 leukemia = system: RPMI-8226 leukemia
NCI-H460 lung = system: NCI-H460 lung
MOLT-4 leukemia = system: MOLT-4 leukemia
SK-MEL-2 melanoma = system: SK-MEL-2 melanoma
RXF 393 renal = system: RXF 393 renal
XF 498 CNS = system: XF 498 CNS
IGROV1 ovarian = system: IGROV1 ovarian
M14 melanoma = system: M14 melanoma
786-0 renal = system: 786-0 renal
NCI-H522 lung = system: NCI-H522 lung
OVCAR-5 ovarian = system: OVCAR-5 ovarian
HOP-18 NSCLC = system: HOP-18 NSCLC
OVCAR-3 ovarian = system: OVCAR-3 ovarian
CCRF-CEM leukemia = system: CCRF-CEM leukemia
UO-31 renal = system: UO-31 renal
SN12C renal = system: SN12C renal
U251 CNS = system: U251 CNS
OVCAR-4 ovarian = system: OVCAR-4 ovarian
PC-3 prostate = system: PC-3 prostate
SNB-75 CNS = system: SNB-75 CNS
MDA-MB-435 = system: MDA-MB-435
DU-145 prostate = system: DU-145 prostate
SF-295 CNS = system: SF-295 CNS
SK-OV-3 ovarian = system: SK-OV-3 ovarian
DLD-1 colon = system: DLD-1 colon
CAKI-1 renal = system: CAKI-1 renal
LOX IMVI melanoma = system: LOX IMVI melanoma
COLO 205 colon = system: COLO 205 colon
MDA-N = system: MDA-N
BT-549 breast = system: BT-549 breast
ACHN renal = system: ACHN renal
UACC-257 melanoma = system: UACC-257 melanoma
KM12 colon = system: KM12 colon
SR leukemia = system: SR leukemia
MALME-3M melanoma = system: MALME-3M melanoma
HOP-92 NSCLC = system: HOP-92 NSCLC
DMS 273 small cell lung = system: DMS 273 small cell lung
HT29 colon = system: HT29 colon
HOP-62 NSCLC = system: HOP-62 NSCLC
SW-620 colon = system: SW-620 colon
HCC-2998 colon = system: HCC-2998 colon
KM20L2 colon = system: KM20L2 colon

In the case of COc1cccc2c1C(=O)c1c(O)c3c(c(O)c1C2=O)C[C@@](O)(C(C)=O)C[C@@H]3OC1OC(C)C(O)C(N)C1Br (some centres not stated), the TGI (M19-MEL melanoma) is reported as 364 nM and 328 nM, the TGI (T-47D breast) is reported as 740 nM and the GI50 (EKVX NSCLC) is reported as 195 nM. For the same molecule, the TGI (EKVX NSCLC) was 5040 nM and 1980 nM, the GI50 (SF-539 CNS) was 41.9 nM and the TGI (SF-539 CNS) was 701 nM and 388 nM. The GI50 (A498 renal) was 65.7 nM, the TGI (A498 renal) was 532 nM and 228 nM and the GI50 (DMS 114 small cell lung) was 23.3 nM. The TGI (DMS 114 small cell lung) was 428 nM and 212 nM, the TGI (MDA-MB-231 breast) was 1720 nM and the GI50 (OVCAR-8 ovarian) was 33.1 nM. The TGI (OVCAR-8 ovarian) was 207 nM and 646 nM, the GI50 (K-562 leukemia) was 20.3 nM and the TGI (K-562 leukemia) was 1640 nM and 1030 nM. For the same molecule, the TGI (HCT-116 colon) was 147 nM and 188 nM, the GI50 (UACC-62 melanoma) was 45.9 nM and the TGI (UACC-62 melanoma) was 892 nM and 424 nM. It also gave a TGI (HCT-15 colon) of 780 nM, a TGI (TK-10 renal) of 407 nM and a GI50 (NCI-H23 lung) of 17.4 nM. For the same molecule, the TGI (NCI-H23 lung) was 206 nM and 177 nM, the GI50 (SK-MEL-28 melanoma) was 220 nM and the TGI (SK-MEL-28 melanoma) was 1280 nM and 1320 nM. The GI50 (SF-268 CNS) was 36.5 nM, the TGI (SF-268 CNS) was 3630 nM and 1210 nM and the TGI (A549 NSCLC) was 262 nM. The GI50 (SK-MEL-5 melanoma) was 16.6 nM, the TGI (SK-MEL-5 melanoma) was 223 nM and 139 nM and the TGI (LXFL 529 NSCLC) was 1120 nM. For the same molecule, the TGI (SNB-78 CNS) was 3090 nM, the GI50 (NCI-H226 lung) was 13.4 nM and the TGI (NCI-H226 lung) was 71.4 nM and 81.8 nM. The GI50 (SNB-19 CNS) was 25 nM, the GI50 (RPMI-8226 leukemia) was 12.4 nM and the TGI (RPMI-8226 leukemia) was 702 nM and 263 nM. The TGI (NCI-H460 lung) was 115 nM and 118 nM, the TGI (MOLT-4 leukemia) was 26.6 nM and the GI50 (SK-MEL-2 melanoma) was 198 nM. The TGI (SK-MEL-2 melanoma) was 715 nM and 704 nM, the TGI (RXF 393 renal) was 661 nM and 864 nM and the GI50 (XF 498 CNS) was 76.6 nM. The TGI (XF 498 CNS) was 414 nM and 423 nM, the TGI (IGROV1 ovarian) was 1410 nM and 9050 nM and the GI50 (M14 melanoma) was 53.5 nM. For the same molecule, the TGI (M14 melanoma) was 257 nM and 669 nM, the GI50 (786-0 renal) was 17.8 nM and the TGI (786-0 renal) was 620 nM and 168 nM. The GI50 (NCI-H522 lung) was 56.3 nM, the TGI (NCI-H522 lung) was 449 nM and 324 nM and the GI50 (OVCAR-5 ovarian) was 55.4 nM. For the same molecule, the TGI (OVCAR-5 ovarian) was 663 nM and 704 nM, the TGI (HOP-18 NSCLC) was 345 nM and the GI50 (OVCAR-3 ovarian) was 178 nM. For the same molecule, the TGI (OVCAR-3 ovarian) was 364 nM and 584 nM, the TGI (CCRF-CEM leukemia) was 70 nM and 108 nM and the GI50 (UO-31 renal) was 134 nM. The TGI (UO-31 renal) was 329 nM and 590 nM, the GI50 (SN12C renal) was 18 nM and the TGI (SN12C renal) was 307 nM and 1120 nM. The TGI (U251 CNS) was 1070 nM and 2210 nM, the GI50 (OVCAR-4 ovarian) was 430 nM and the TGI (OVCAR-4 ovarian) was 830 nM and 2710 nM. The TGI (PC-3 prostate) was 1030 nM, the GI50 (SNB-75 CNS) was 151 nM and the TGI (MDA-MB-435) was 1130 nM. The TGI (DU-145 prostate) was 2670 nM, the GI50 (SF-295 CNS) was 15.9 nM and the TGI (SF-295 CNS) was 419 nM and 194 nM. For the same molecule, the GI50 (SK-OV-3 ovarian) was 31.4 nM, the TGI (SK-OV-3 ovarian) was 288 nM and 323 nM and the GI50 (DLD-1 colon) was 67.9 nM. The TGI (DLD-1 colon) was 175 nM and 607 nM, the TGI (CAKI-1 renal) was 257 nM and the TGI (LOX IMVI melanoma) was 153 nM and 164 nM. For the same molecule, the GI50 (COLO 205 colon) was 219 nM, the TGI (COLO 205 colon) was 2990 nM and 1230 nM and the TGI (MDA-N) was 630 nM. For the same molecule, the TGI (BT-549 breast) was 913 nM, the TGI (ACHN renal) was 174 nM and 139 nM and the GI50 (UACC-257 melanoma) was 123 nM. For the same molecule, the TGI (UACC-257 melanoma) was 487 nM and 1140 nM, the GI50 (KM12 colon) was 79.7 nM and the TGI (KM12 colon) was 426 nM and 453 nM. The TGI (SR leukemia) was 18.5 nM, the GI50 (MALME-3M melanoma) was 21.5 nM and the TGI (MALME-3M melanoma) was 297 nM and 225 nM. For the same molecule, the GI50 (HOP-92 NSCLC) was 60.2 nM, the TGI (HOP-92 NSCLC) was 422 nM and 474 nM and the TGI (DMS 273 small cell lung) was 268 nM and 151 nM. The TGI (HT29 colon) was 573 nM, the TGI (HOP-62 NSCLC) was 78.5 nM and 236 nM and the GI50 (SW-620 colon) was 26.6 nM. For the same molecule, the TGI (SW-620 colon) was 766 nM and 1460 nM, the GI50 (HCC-2998 colon) was 168 nM and the TGI (HCC-2998 colon) was 327 nM and 489 nM. It also gave a TGI (KM20L2 colon) of 1170 nM.
